Laboratory results reported in ChEMBL document CHEMBL4334495, “Design and Biological Evaluation of m-Xylene Thioether-Stapled Short Helical Peptides Targeting the HIV-1 gp41 Hexameric Coiled-Coil Fusion Complex” (J Med Chem, 2019).
pEC50: −log10 of the molar value. Starred links: 1 amine or outer side, 2 acyl side, 3 side chain; linkers in the order of their positions; H or OH if unused. Positions of bridges follow the written chain, without caps; N, C: chain ends. Non-standard residues stand in square brackets, D forms with d. Residues, ends and D or L forms follow the SMILES beside them. ξ: configuration not given here. mXylylene = c1cc(C[*:1])cc(C[*:2])c1; ξhCys = NC(CCS)C(=O)O

Key:
[1] = test system: Human immunodeficiency virus 1; assay: Synergistic antiviral activity against R5 tropic HIV-1 subtype-B Bal infected in human MT2 cells or CEMx174 5.25 M7 cells assessed as reduction in p24 Gag protein production by measuring combination index at 12:1 ratio of hCS6ERE to compound measured at 4 days post-infection by ELISA; assay type: functional, HIV-1 group M
[2] = test system: Human immunodeficiency virus 1; assay: Antiviral activity against T2635 resistant HIV1 LAI harboring Q66R mutant infected in human MT2 cells or CEMx174 5.25 M7 cells assessed as reduction in p24 Gag protein production measured at 4 days post-infection by ELISA; assay type: functional, organism-based, M:B_Lai
[3] = test system: Human immunodeficiency virus 1; assay: Antiviral activity against HIV1 NL4-3 infected in human MT2 cells or CEMx174 5.25 M7 cells assessed as reduction in p24 Gag protein production measured at 4 days post infection by ELISA; assay type: functional, organism-based; details: Human immunodeficiency virus 1, NL4-3, 96 h
[4] = test system: Human immunodeficiency virus 1; assay: Antiviral activity against T2635 resistant HIV1 LAI harboring Q66R mutant infected in human MT2 cells or CEMx174 5.25 M7 cells assessed as reduction in p24 Gag protein production at 25:1 ratio of compound to HP23 measured at 4 days post infection by ELISA; assay type: functional, organism-based, M:B_Lai
[5] = test system: Human immunodeficiency virus 1; assay: Antiviral activity against T20 resistant HIV1 NL4-3 harboring with V38E/N42T mutant infected in human MT2 cells or CEMx174 5.25 M7 cells assessed as reduction in p24 Gag protein production measured at 4 days post-infection by ELISA; assay type: functional, organism-based
[6] = test system: Human immunodeficiency virus 1; assay: Antiviral activity against HIV1 NL4-3 infected in human MT2 cells or CEMx174 5.25 M7 cells assessed as reduction in p24 Gag protein production at 10:1 compound to HP23 ratio measured at 4 days post-infection by ELISA; assay type: functional, organism-based; details: Human immunodeficiency virus 1, NL4-3, 96 h
[7] = test system: Human immunodeficiency virus 1; assay: Synergistic antiviral activity against X4 tropic HIV-1 subtype-B 3B infected in human MT2 cells or CEMx174 5.25 M7 cells assessed as reduction in p24 Gag protein production by measuring combination index at 6:1 compound to HP23 ratio measured at 4 days post-infection by ELISA; assay type: functional, HIV-1 group M
[8] = test system: Human immunodeficiency virus 1; assay: (§1) Ratio of EC50 for antiviral activity against HIV1 NL4-3 infected in human MT2 cells or CEMx174 5.25 M7 cells in absence of HP23 to EC50 for antiviral activity against HIV1 NL4-3 infected in human MT2 cells or CEMx174 5.25 M7 cells at 20:1 compound to HP23 ratio; assay type: functional
[9] = target: Envelope glycoprotein gp160 (Human immunodeficiency virus 1) (UniProt Q6QLK5); assay: Synergistic inhibition of HIV1 gp41-induced cell-cell fusion between viral envelope expressing human HL2/3 cells to CD4/CCR5 receptor expressing TZM-bl cells assessed as combination index at 1:1 compound to HP23 ratio incubated for 6 hrs by luciferase reporter gene assay
[10] = test system: Human immunodeficiency virus 1; assay: Antiviral activity against T20 resistant HIV1 NL4-3 harboring with V38E/N42S mutant infected in human MT2 cells or CEMx174 5.25 M7 cells assessed as reduction in p24 Gag protein production measured at 4 days post-infection by ELISA; assay type: functional, organism-based
[11] = test system: Human immunodeficiency virus 1; assay: Antiviral activity against R5 tropic HIV-1 subtype-B Bal infected in human MT2 cells or CEMx174 5.25 M7 cells assessed as reduction in p24 Gag protein production measured at 4 days post-infection by ELISA; assay type: functional, cell-based, HIV-1 group M; details: Human immunodeficiency virus 1, Bal, 96 h
[12] = test system: Human immunodeficiency virus 1; assay: Antiviral activity against X4 tropic HIV-1 subtype-B 3B infected in human MT2 cells or CEMx174 5.25 M7 cells assessed as reduction in p24 Gag protein production measured at 4 days post-infection by ELISA; assay type: functional, cell-based, HIV-1 group M; details: Human immunodeficiency virus 1, 3B, 96 h
[13] = test system: Human immunodeficiency virus 1; assay: Antiviral activity against T20 resistant HIV1 NL4-3 harboring with V38E/N42T mutant infected in human MT2 cells or CEMx174 5.25 M7 cells assessed as reduction in p24 Gag protein production at 600:1 hCS6ERE to compound ratio measured at 4 days post-infection by ELISA; assay type: functional, organism-based
[14] = test system: Human immunodeficiency virus 1; assay: Antiviral activity against R5 tropic HIV-1 subtype-B Bal infected in human MT2 cells or CEMx174 5.25 M7 cells assessed as reduction in p24 Gag protein production at 12:1 ratio of hCS6ERE to compound measured at 4 days post-infection by ELISA; assay type: functional, cell-based, HIV-1 group M; details: Human immunodeficiency virus 1, Bal, 96 h
[15] = target: Envelope glycoprotein gp160 (Human immunodeficiency virus 1) (UniProt Q6QLK5); assay: Ratio of EC50 for inhibition of HIV1 gp41-induced cell-cell fusion between viral envelope expressing human HL2/3 cells to CD4/CCR5 receptor expressing TZM-bl cells in absence of HP23 to EC50 for inhibition of HIV1 gp41-induced cell-cell fusion between viral envelope expressing human HL2/3 cells to CD4/CCR5 receptor expressing TZM-bl cells at 2:1 ratio of hCS6ERE to compound
[16] = test system: Human immunodeficiency virus 1; assay: as §1, with “R5 tropic HIV-1 subtype-B Bal” for “HIV1 NL4-3”, “hCS6ERE” for “HP23”, “24:1 ratio of hCS6ERE to” for “20:1”, “compound” for “compound to HP23 ratio”; assay type: functional, HIV-1 group M
[17] = test system: Human immunodeficiency virus 1; assay: Antiviral activity against R5 tropic HIV-1 subtype-B Bal infected in human MT2 cells or CEMx174 5.25 M7 cells assessed as reduction in p24 Gag protein production at 3:1 ratio of hCS6ERE to compound measured at 4 days post-infection by ELISA; assay type: functional, cell-based, HIV-1 group M; details: Human immunodeficiency virus 1, Bal, 96 h
[18] = test system: Human immunodeficiency virus 1; assay: (§2) Ratio of EC50 for antiviral activity against T2635 resistant HIV1 LAI harboring Q66R mutant infected in human MT2 cells or CEMx174 5.25 M7 cells in absence of hCS6ERE to antiviral activity against T2635 resistant HIV1 LAI harboring Q66R mutant infected in human MT2 cells or CEMx174 5.25 M7 cells at 25:1 ratio of hCS6ERE to compound; assay type: functional, M:B_Lai
[19] = test system: Human immunodeficiency virus 1; assay: as §2, with “50:1” for “25:1”; assay type: functional, M:B_Lai
[20] = test system: Human immunodeficiency virus 1; assay: as §1, with “X4 tropic HIV-1 subtype-B 3B” for “HIV1 NL4-3”, “hCS6ERE” for “HP23”, “12:1 ratio of hCS6ERE to” for “20:1”, “compound” for “compound to HP23 ratio”; assay type: functional, HIV-1 group M
[21] = test system: Human immunodeficiency virus 1; assay: Ratio of EC50 for antiviral activity against T20 resistant HIV1 NL4-3 harboring with V38E/N42S mutant infected in human MT2 cells or CEMx174 5.25 M7 cells in absence of hCS6ERE to EC50 for antiviral activity against T20 resistant HIV1 NL4-3 harboring with V38E/N42S mutant infected in human MT2 cells or CEMx174 5.25 M7 cells at 3500:1 hCS6ERE to compound ratio; assay type: functional
[22] = test system: Human immunodeficiency virus 1; assay: as §1, with “X4 tropic HIV-1 subtype-B 3B” for “HIV1 NL4-3”, “hCS6ERE” for “HP23”, “6:1 ratio of hCS6ERE to” for “20:1”, “compound” for “compound to HP23 ratio”; assay type: functional, HIV-1 group M
[23] = test system: Human immunodeficiency virus 1; assay: as §2, with “12.5:1” for “25:1”; assay type: functional, M:B_Lai
[24] = test system: Human immunodeficiency virus 1; assay: Ratio of EC50 for antiviral activity against T20 resistant HIV1 NL4-3 harboring with V38E/N42T mutant infected in human MT2 cells or CEMx174 5.25 M7 cells in absence of hCS6ERE to EC50 for Antiviral activity against T20 resistant HIV1 NL4-3 harboring with V38E/N42T mutant infected in human MT2 cells or CEMx174 5.25 M7 cells at 150:1 hCS6ERE to compound ratio; assay type: functional

Chain of Envelope glycoprotein gp160 (Human immunodeficiency virus 1) (Q6QLK5 1-814): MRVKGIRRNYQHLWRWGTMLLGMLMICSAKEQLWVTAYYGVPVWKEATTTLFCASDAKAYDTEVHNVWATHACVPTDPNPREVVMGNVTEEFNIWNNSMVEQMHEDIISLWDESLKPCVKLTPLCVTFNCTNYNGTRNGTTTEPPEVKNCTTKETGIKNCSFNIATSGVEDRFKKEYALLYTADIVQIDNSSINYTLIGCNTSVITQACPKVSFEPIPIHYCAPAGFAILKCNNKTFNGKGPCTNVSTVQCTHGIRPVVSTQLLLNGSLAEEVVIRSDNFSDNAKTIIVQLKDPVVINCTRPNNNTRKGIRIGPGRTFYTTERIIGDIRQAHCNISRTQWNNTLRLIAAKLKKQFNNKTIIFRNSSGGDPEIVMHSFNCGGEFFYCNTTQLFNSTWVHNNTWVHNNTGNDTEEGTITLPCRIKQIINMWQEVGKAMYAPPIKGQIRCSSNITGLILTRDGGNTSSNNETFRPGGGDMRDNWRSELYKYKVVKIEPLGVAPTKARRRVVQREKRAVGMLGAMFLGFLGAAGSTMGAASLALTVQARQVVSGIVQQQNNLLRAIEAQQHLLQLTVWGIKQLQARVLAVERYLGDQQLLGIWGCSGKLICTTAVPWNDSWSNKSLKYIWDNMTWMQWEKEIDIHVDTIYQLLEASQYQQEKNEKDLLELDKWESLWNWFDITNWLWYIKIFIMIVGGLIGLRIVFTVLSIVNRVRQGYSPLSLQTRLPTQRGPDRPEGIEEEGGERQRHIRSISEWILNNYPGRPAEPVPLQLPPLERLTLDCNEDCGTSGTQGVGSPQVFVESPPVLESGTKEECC

With CC[C@H](C)[C@H](NC(C)=O)C(=O)N[C@@H](CCC(=O)O)C(=O)N[C@@H](CCC(=O)O)C(=O)N[C@@H](CC(C)C)C(=O)N[C@H](C(=O)NC1CCSCc2cccc(c2)CSCCC(C(=O)N[C@@H](CCC(N)=O)C(=O)N[C@@H](CCC(N)=O)C(=O)N[C@@H](CCCNC(=N)N)C(=O)N[C@@H](CCCCN)C(=O)N[C@@H](CC(N)=O)C(=O)N[C@@H](CCC(=O)O)C(=O)N[C@@H](CCC(=O)O)C(=O)N[C@@H](C)C(=O)N[C@@H](CC(C)C)C(=O)N[C@@H](CCCNC(=N)N)C(=O)N[C@@H](CCC(=O)O)C(=O)N[C@@H](CC(C)C)C(N)=O)NC(=O)[C@H](CCC(N)=O)NC(=O)[C@H](C)NC(=O)[C@H](C)NC1=O)[C@@H](C)CC (stereo not given in full) (Ac-IEELI[ξhCys]AAQ[ξhCys]QQRKNEEALREL-NH2; linker 6-10 via mXylylene) the CI [1] was 0.6, the pEC50 [2] was 7.06 and the pEC50 [3] was 7.66. The pEC50 [4] was 7.40, the pEC50 [5] was 6.00 and the pEC50 [6] was 8.05. For the same molecule, the CI [7] was 0.8, the “Ratio EC50” value [8] was 1.6 and the CI [9] was 0.9. For the same molecule, the pEC50 [10] was 5.16, the pEC50 [11] was 7.81 to 7.82 and the pEC50 [12] was 7.57 to 7.96.

For H-EMTWEEWEKKIEEYTKKIEEILK-OH, the pEC50 [2] was 8.32, the pEC50 [3] was 8.47 and the pEC50 [13] was 9.10. The pEC50 [5] was 8.39, the pEC50 [14] was 9.30 and the Ratio EC50 [15] was 2. The “Ratio EC50” value [16] was 5.2, the pEC50 [17] was 8.85 and the “Ratio EC50” value [18] was 3.2. The pEC50 [10] was 8.85, the pEC50 [11] was 8.59 and the “Ratio EC50” value [19] was 9.6. For the same molecule, the pEC50 [12] was 8.60, the “Ratio EC50” value [20] was 2.8 and the “Ratio EC50” value [21] was 2.3. For the same molecule, the “Ratio EC50” value [22] was 1.9, the “Ratio EC50” value [23] was 2.7 and the “Ratio EC50” value [24] was 1.9.
